The values below come from patent US20240366569A1, “COMBINATIONS FOR TREATING CANCER” (Purdue Pharmaceutical Products L.P., priority 2023, published 2024).

Data set [1] can be described thus: MC38 model: tolerability and body weight. It counts as in vivo, female C57BL/6 mice. The procedure: After tumour cell inoculation, the animals were checked daily for morbidity and mortality. During routine monitoring, the animals were checked for treatment effects on tumour growth, behaviour such as mobility, food and water consumption, body weight gain/loss (Body weights) were measured twice a week after randomization), eye/hair matting and any other abnormalities. Mortality and observed clinical signs were recorded for individual animals in detail.
Tumour volumes were measured twice a week after randomization in two dimensions using a caliper, and the volume was expressed in mm3 using the formula: “V=(L×W×W)/2, where V was tumour volume, L was tumour length (the longest tumor dimension) and W was tumour width (the longest tumour dimension perpendicular to L). Dosing as well as tumour and body weight measurements were conducted in a Laminar Flow Cabinet. The body weights and tumour volumes were measured by using StudyDirector™ software (version 3.1.399.19).

Data set [2] can be described thus: Myelosuppression on administration of Tinostamustine at the indicated dosage ranges. It counts as in vivo. The following applies: below 40 mg/m^2 body surface area. The procedure:
More particularly, the dosage ranges of Tinostamustine described herein may preferably avoid Tinostamustine causing cytotoxicity to immune cells. For comparison, the doses at which Tinostamustine are administered in accordance with the present invention are below those normally used to achieve an anti-cancer neoplastic effect (e.g. via inducing cytotoxicity in tumour cells) with Tinostamustine as a monotherapy (typically […]).

Data set [3] concerns MC38 subcutaneous murine colorectal syngeneic model. The data set can be described thus: MC38 subcutaneous murine colorectal syngeneic model: tumour burden and survival. It counts as in vivo, female C57BL/6 mice. The procedure: Specifically, the effects of the combined therapy Tinostamustine and an […] antibody in the treatment of the MC38 subcutaneous murine colorectal syngeneic model in female C57BL/6 mice following 3 dose cycles was assessed. MC38 is a commonly used murine model for colorectal carcinoma.
Six groups of mice were randomly allocated a group, hereafter referred to as Groups 1 to 6, as in Table 3.
Tinostamustine was administered intravenously, specifically by slow intravenous injection at a rate of ˜60 s per mouse. Two groups of mice were administered tinostamustine at a dose of 5 mg/kg once weekly, either as a monotherapy (Group 3) or as a combination therapy (Group 5). […]
The MC38 cells were maintained in vitro with DMEM medium supplemented with 10% fetal bovine serum at 37° C. in an atmosphere of 5% CO2 in air. The cells in exponential growth phase were harvested and quantitated by cell counter before tumour inoculation. […]
Tumour volumes were measured twice a week after randomization in two dimensions using a caliper, and the volume was expressed in mm3 using the formula: “V=(L×W×W)/2, where V was tumour volume, L was tumour length (the longest tumor dimension) and W was tumour width (the longest tumour dimension perpendicular to L). […] The body weights and tumour volumes were measured by using StudyDirector™ software (version 3.1.399.19). […]

Data set [4] can be described thus: Phase 1B clinical trial of Tinostamustine in combination with Nivolumab: safety, tolerability, recommended dose. It counts as in vivo, human. The source says:
The clinical study relates to an open-label, single-centre, phase-1B clinical trial to determine the safety, tolerability, recommended dose and anti-cancer efficacy of Tinostamustine in combination with the anti-PD-1 monoclonal antibody (mAb), Nivolumab in patients with advanced melanoma receiving standard-of-care treatment. Tinostamustine is a compound having the following structural formula: […]
A total of 17 patients with advanced melanoma were recruited to a Phase IB study to characterise the safety, tolerability, recommended dose and preliminary efficacy in the treatment of cancer of Tinostamustine in combination with the immune checkpoint inhibitor, Nivolumab.
Tinostamustine was administered intravenously. Four patients were administered tinostamustine at a dose of 15 mg/m^2 (referred to as dose level 1—DL1) for each cycle. Thirteen patients were administered with Tinostamustine at a dose of 30 mg/m^2 (referred to as dose level 2—DL2) for each cycle.
The primary endpoint of the study was dose limiting toxicity (DLT) observed during the first 6 weeks of trial treatment. […]

A further data set has as its system metastatic melanoma. The following applies: cited from earlier work.
For data set [5] the following is noted: patients with advanced melanoma; cited from earlier work.
Data set [6] concerns renal cell carcinoma (RCC). The note with it: cited from earlier work.
Data set [7] has as its system advanced melanoma. The following applies: cited from earlier work.
The test system of data set [8] is advanced melanoma. The following applies: in vivo; cited from earlier work.

“Also recorded” adds a separate entry of the source.

Regarding `Cn1c(CCCCCCC(=O)NO)nc2cc(N(CCCl)CCCl)ccc21` [Tinostamustine], the tolerability entry in data set [1] (3 weeks of treatment) was “well-tolerated”. The body weight result in [1] (mean body weight during treatment) is “no loss of body weight; also recorded: weight gain”. The myelosuppression entry in data set [2] is given as “no myelosuppression”. Besides, the “tumour burden / anti-tumour effect” value in data set [3] (dose group not specified) is “has anti-tumour effect”. In addition, the survival of mice result in data set [3] (vs vehicle control) was “significantly prolonged the survival; also recorded: increases survival”. Also, the safety concerns entry in data set [4] (Tinostamustine doses between 10 mg/m^2 and 30 mg/m^2 body surface area) is “without any significant safety concerns”. Moreover, in [4] (in combination with Nivolumab 3 mg/kg), the recommended dose turned out to be 30 mg/m^2.
Take “Ipilimumab: anti-CTLA-4 monoclonal antibody”: the response rate in the data set with metastatic melanoma was 15-20%; in data set [6], “minimal activity”. Also, the high-grade adverse events in data set [5] is listed as 28 % of patients.
Regarding Nivolumab, in the data set on advanced melanoma [7] (first-line), the objective response rate is given as 40.0% and the progression-free survival is recorded as 5.1 months. For the same compound, in the data set with advanced melanoma [7] (versus dacarbazine, first-line), the “overall survival improved by” value is listed as 58%. Also, in the data set on advanced melanoma [7] (versus dacarbazine, p<0.001), the “overall survival HR” value is 0.42 and the “progression-free survival HR” value is 0.43. Further, in the data set with advanced melanoma [7] (versus dacarbazine), the “progression-free survival improved by” value is reported as 57%. In addition, in the data set on metastatic melanoma, the response rate is reported as 43%. For the same compound, the high-grade adverse events in data set [5] was 23 % of patients. Also, the median overall survival result in the data set with advanced melanoma [8] is “not reached”. In addition, in [6], the response rate is around 25%.
